The values that follow come from US4230705A, “6-Phenyl-1,2,4-triazolo[4,3-b]pyridazines and their uses in treating anxiety” (American Cyanamid Company, priority 1976, dated 1980).

Assay [1] deals with Clonic Seizures Caused By Pentylenetetrazole. The assay is described as follows: Protection against clonic seizures caused by pentylenetetrazole in rats. To be noted: Rattus norvegicus; oral, 2% starch vehicle; pentylenetetrazole 21 to 23 mg./kg. intravenously at estimated time of peak effect; protection of 50% of rats; read-out: Medium Effective Oral Dose mg./kg. ED50 (converted). In kind it is in vivo. On the procedure: The anti-anxiety properties of the novel compounds of the present invention have been established in a test which indicates anxiolytic activity by the measure of protection from convulsions resulting from the administration of pentylenetetrazole. Graded dose levels of the compounds of this invention were administered orally, in a 2% starch vehicle, to groups of at least 5 rats. At the estimated time of peak effect, the rats were treated intravenously with pentylenetetrazole at a dose of 21 to 23 mg./kg. of body weight. This dose is estimated to cause clonic seizures in 99% of unprotected rats. The effective dose (ED50) of the test compound for protection of 50% of the animals is calculated by the method of D. H. Finney in "Statistical Methods in Biological Assay", Second Edition, Hafner Publishing Co., New York, 1964, pp. 456-457. Representative results are given in Table I which follows in comparison with chlordiazepoxide or meprobamate, which were tested in exactly the same manner. It has been reported [R. T. Hill and D. H. Tedeschi, "Animal Testing and Screening Procedures in Evaluating Psychotropic Drugs" in "An Introduction to Psychopharmacology", Eds. R. R. Rech and K. E. Moore, Raven Press, New York, pp. 237-288 (1971)] that there is a high degree of correlation between antagonism of pentylenetetrazole seizures in rats and anti-anxiety effects in higher warm-blooded animals.

The test system of assay [2] is conflict situation in rats. The assay is described as follows: Non-conditioned passive avoidance (conflict) procedure in rats. The assay is classed as in vivo, Sprague-Dawley rats. To be noted: Rattus norvegicus; oral, 2% starch vehicle; 9 or more shocks in 5 minute test period; rats deprived of water 48 hours and food 24 hours; read-out: Median Effective Dose (ED50 mg./kg.). On the procedure:
Another test which has been used to assess anti-anxiety effects is a non-conditioned passive avoidance procedure described by J. R. Vogel, B. Beer and D. E. Clody, "A Simple and Reliable Conflict Procedure for Testing Anti-Anxiety Agents", Psychopharmacologia, Vol. 21, pp. 1-7 (1971). A conflict situation is induced in rats by a modification of this method. To groups of six naive Sprague-Dawley rats (200-220 grams), previously deprived of water for forty-eight hours and food for 24 hours, are administered graded oral doses of test compound suspended in 2% starch vehicle also containing 2 drops of polyethylene glycol and polysorbate 80, or vehicle alone (controls). At the time of peak effect each rat is placed in a plexiglass box fitted with a drinkometer circuit connected between the stainless steel grid floor and a stainless steel drinking tube inserted in a hole in one of the walls of the box. […] The number of shocks received by the rat during a 5 minute test period is recorded. […]

Turning to `Cc1nnc2ccc(-c3ccccc3)nn12` [3-methyl-6-phenyl-1,2,4-triazolo[4,3-b]pyridazine], the ED50 was 3 mg/kg in assay [1] and 100 mg/kg in assay [2].
Consider `c1ccc(-c2ccc3nncn3n2)cc1` [6-phenyl-1,2,4-triazolo[4,3-b]pyridazine], for which the ED50 in assay [1] was 9.5 mg/kg.
Take `CNC1=Nc2ccc(Cl)cc2C(c2ccccc2)=[N+]([O-])C1` [Chlordiazepoxide]: the ED50 in assay [1] is 2.5 mg/kg; in assay [2] it was 9.6 mg/kg.
Consider `CCCC(C)(COC(N)=O)COC(N)=O` [Meprobamate], for which the ED50 in assay [1] was 22 mg/kg.
